The source made the active and inactive calls. How the calls were made is not given here.
Legend:
[1] = IC90 against starved M. tuberculosis, dose response, CFU by imaging, dry powder, 7108-04 (AID 743164); conditions: Mycobacterium tuberculosis, starved, CFU imaging
[2] = test system: Mycobacterium tuberculosis, starved, CFU imaging; experiment: as above

Compound	outcome [1]	IC90 [2]
CCOC(=O)NC(=O)c1ccsc1NC(=O)c1nc2ccccc2s1	inactive	
Cn1c(NC(=O)c2ccccc2)nc2ccccc21		< 8 µM

— PubChem BioAssay AID743164 (Broad Institute, 2013)
